From article PMC11277489, “Novel Piperazine Derivatives of Vindoline as Anticancer Agents” (International Journal of Molecular Sciences, 2024)
Read-outs that look alike come from different tables or passages of the source.

Experiments:
[1] = tested on: MDA-MB-231/ATCC; test: NCI60 one-dose screen (10 μM), Breast Cancer; assay type: cell-based, human; conditions: Homo sapiens
[2] = tested on: DU-145; test: NCI60 one-dose screen (10 μM), Prostate Cancer; assay type: cell-based; conditions: Homo sapiens
[3] = tested on: U251; test: NCI60 one-dose screen (10 μM), CNS Cancer; assay type: cell-based; conditions: Homo sapiens
[4] = tested on: PC-3; test: NCI60 one-dose screen (10 μM), Prostate Cancer; assay type: cell-based; conditions: Homo sapiens
[5] = tested on: UO-31; test: NCI60 one-dose screen (10 μM), Renal Cancer; assay type: cell-based; conditions: Homo sapiens
[6] = tested on: HOP-92; test: NCI60 one-dose screen (10 μM), Non-small Cell Lung Cancer; assay type: cell-based; conditions: Homo sapiens
[7] = tested on: SNB-75; test: NCI60 one-dose screen (10 μM), CNS Cancer; assay type: cell-based, human; conditions: Homo sapiens
[8] = tested on: BT-549; test: NCI60 one-dose screen (10 μM), Breast Cancer; assay type: cell-based; conditions: Homo sapiens
[9] = tested on: NCI-H226; test: NCI60 one-dose screen (10 μM), Non-small Cell Lung Cancer; assay type: cell-based; conditions: Homo sapiens
[10] = tested on: A498; test: NCI60 one-dose screen (10 μM), Renal Cancer; assay type: cell-based; conditions: Homo sapiens
[11] = tested on: NCI-H460; test: NCI60 one-dose screen (10 μM), Non-small Cell Lung Cancer; assay type: cell-based; conditions: Homo sapiens
[12] = tested on: SK-OV-3; test: NCI60 one-dose screen (10 μM), Ovarian Cancer; assay type: cell-based; conditions: Homo sapiens
[13] = tested on: NCI/ADR-RES; test: NCI60 one-dose screen (10 μM), Ovarian Cancer; assay type: cell-based; conditions: Homo sapiens, read-out: Growth percent rate
[14] = tested on: MDA-MB-468; test: NCI60 one-dose screen (10 μM), Breast Cancer; assay type: cell-based; conditions: Homo sapiens
[15] = tested on: OVCAR-5; test: NCI60 one-dose screen (10 μM), Ovarian Cancer; assay type: cell-based; conditions: Homo sapiens
[16] = tested on: 60 human tumor cell lines (NCI60); test: NCI60 one-dose screen (10 μM), whole panel; assay type: cell-based; conditions: for antiproliferative effect (in words): 10 μM one-dose, NCI60; for activity at 10 µM: read-out: Growth percent rate, Mean
[17] = tested on: UACC-62; test: NCI60 one-dose screen (10 μM), Melanoma; assay type: cell-based; conditions: Homo sapiens
[18] = tested on: T-47D; test: NCI60 one-dose screen (10 μM), Breast Cancer; assay type: cell-based; conditions: Homo sapiens, T47D, read-out: Growth percent rate
[19] = MDA-MB-231, read-out: Growth percent rate
[20] = DU-145, read-out: Growth percent rate
[21] = U-251, read-out: Growth percent rate
[22] = PC-3, read-out: Growth percent rate
[23] = UO-31, read-out: Growth percent rate
[24] = HOP-92, read-out: Growth percent rate
[25] = SNB-75, read-out: Growth percent rate
[26] = BT-549, read-out: Growth percent rate
[27] = NCI-H226, read-out: Growth percent rate
[28] = A498, read-out: Growth percent rate
[29] = NCI-H460, read-out: Growth percent rate
[30] = MDA-MB-468, read-out: Growth percent rate
[31] = OVCAR-5, read-out: Growth percent rate
[32] = 10 μM, DU-145, Prostate Cancer, read-out: Growth percent rate
[33] = U-251, 10 μM, U251, CNS Cancer, read-out: Growth percent rate
[34] = 10 μM, PC-3, Prostate Cancer, read-out: Growth percent rate
[35] = 10 μM, HOP-92, Non-small Cell Lung Cancer, read-out: Growth percent rate
[36] = 10 μM, SNB-75, CNS Cancer, read-out: Growth percent rate
[37] = 10 μM, UACC-62, Melanoma, read-out: Growth percent rate
[38] = 10 μM, A498, Renal Cancer, read-out: Growth percent rate
[39] = 10 μM, NCI-H460, Non-small Cell Lung Cancer, read-out: Growth percent rate
[40] = 10 μM, SK-OV-3, Ovarian Cancer, read-out: Growth percent rate
[41] = 10 μM, MDA-MB-468, Breast Cancer, read-out: Growth percent rate
[42] = 10 μM, mean over 60 human cancer cell lines
[43] = 10 μM, BT-549, Breast Cancer, read-out: Growth percent rate
[44] = 10 μM, NCI-H226, Non-small Cell Lung Cancer, read-out: Growth percent rate

Row | SMILES | activity at 10 µM [1, 19] [%] | activity at 10 µM [2, 20] [%] | activity at 10 µM [3, 21] [%] | activity at 10 µM [4, 22] [%] | activity at 10 µM [5, 23] [%] | activity at 10 µM [6, 24] [%] | activity at 10 µM [7, 25] [%] | antiproliferative effect (in words) [16] | activity at 10 µM [2, 32] [%] | activity at 10 µM [3, 33] [%] | activity at 10 µM [4, 34] [%] | activity at 10 µM [6, 35] [%] | activity at 10 µM [7, 36] [%] | activity at 10 µM [17, 37] [%] | activity at 10 µM [10, 38] [%] | activity at 10 µM [11, 39] [%] | activity at 10 µM [12, 40] [%] | activity at 10 µM ([13]; 10 μM, Ovarian Cancer) [%] | activity at 10 µM [14, 41] [%] | activity at 10 µM [16, 42] [%] | further results
1 | CCC12C=CCN3CC[C@@]4(c5ccc(OC)cc5N(C)[C@H]4[C@@](O)(C(=O)OC)[C@@H]1OC(C)=O)[C@@H]32 (stereo partly shown) [Compound 1, vindoline] | 113 | 119 | 95.9 | 98.6 | 84.6 | 109 | 119 | a notable antiproliferative effect was not shown |  |  |  |  |  |  |  |  |  |  |  |  | activity at 10 µM [8, 26]: 106%; activity at 10 µM [9, 27]: 92.3%; activity at 10 µM [10, 28]: 137%; activity at 10 µM [11, 29]: 120%; activity at 10 µM ([12]; SK-OV-3, read-out: Growth percent rate): 102%; activity at 10 µM [13]: 107%; activity at 10 µM [14, 30]: 134%; activity at 10 µM [15, 31]: 107%; antiproliferative effect (in words) ([16]; listed as vindoline): does not show any anticancer effect; activity at 10 µM ([16]; Homo sapiens): 107%
2 | CCC12C=CCN3CCC4(c5ccc(OC)cc5N(C)C4C(O)(C(=O)OC)C1OC(=O)CCCN1CCN(C)CC1)C32 (stereo not shown) [Compound 3] |  |  |  |  |  |  |  |  | 99.6 | 89.9 | 92.9 | 80.9 | 85.3 | 83.2 | 83.2 | 97.7 | 93.3 | 94.7 | 70.5 | 87.8 | activity at 10 µM ([1]; 10 μM, MDA-MB-231/ATCC, Breast Cancer, read-out: Growth percent rate): 80.4%; activity at 10 µM ([5]; 10 μM, UO-31, Renal Cancer, read-out: Growth percent rate): 75.8%; activity at 10 µM ([18]; 10 μM, T-47D, Breast Cancer): 90.9%; activity at 10 µM ([15]; 10 μM, OVCAR-5, Ovarian Cancer, read-out: Growth percent rate): 96.4%
3 | CCC12C=CCN3CCC4(c5cc(NC(=O)CCl)c(OC)cc5N(C)C4C(O)(C(=O)OC)C1OC(C)=O)C32 (stereo not shown) [Compound 12, 10-chloroacetamidovindoline] |  |  |  |  |  |  |  | moderate cytostatic activity | 43.9 | -47.9 | 24.5 | 34.3 | -8.81 | 22.1 | 54.6 | 51 | 33.9 | 79.4 | -40.8 | 18.1 | activity at 10 µM [8, 43]: 14.7%; activity at 10 µM [9, 44]: 43.5%
4 | CCC12C=CCN3CCC4(c5ccc(OC)cc5N(C)C4C(O)(C(=O)OC)C1O)C32 (stereo not shown) [Compound 13, 17-desacetylvindoline] | 101 | 110 | 99.3 | 96.5 | 87.6 | 88.6 | 84.9 | a notable antiproliferative effect was not shown |  |  |  |  |  |  |  |  |  |  |  |  | activity at 10 µM [8, 26]: 101%; activity at 10 µM ([17]; UACC-62, read-out: Growth percent rate): 90.7%; activity at 10 µM [9, 27]: 88.5%; activity at 10 µM [18]: 108%; activity at 10 µM [10, 28]: 104%; activity at 10 µM [11, 29]: 106%; activity at 10 µM [13]: 99.4%; activity at 10 µM [14, 30]: 92.2%; activity at 10 µM [15, 31]: 91.2%; activity at 10 µM ([16]; Homo sapiens): 98.8%
5 | CCC12C=CCN3CCC4(c5ccc(OC)cc5N(C)C4C(O)(C(=O)OC)C1OC(=O)CCC(=O)O)C32 (stereo not shown) [Compound 15, 17-(O-3-carboxypropanoyl)vindoline] |  |  |  |  |  |  |  | a notable antiproliferative effect was not shown | 98.1 | 105 | 87.7 | 98.8 | 53.4 | 92.4 | 90.6 | 97.4 | 92.3 | 94.6 | 98.7 | 91.7 | activity at 10 µM [8, 43]: 80.5%; activity at 10 µM [9, 44]: 66.6%
